# Assay results reported in patent US20110021505A1, “Use of sulfonyl-substituted 2-sulfonylaminobenzoic acid N-phenylamides in the treatment of pain” (SANOFI-AVENTIS DEUTSCHLAND GMBH, priority 2007, published 2011).
# Test system: tactile allodynia induced in a hind paw by surgical lesion of the sciatic nerve
# Test: Anti-allodynic effect in the spared nerve injury (SNI) model of neuropathic pain in mice after oral administration
# Format: in vivo, male C57B6 mice
# Settings: for Mean PWT (paw withdrawal threshold) ± SEM / DeltaAUC1 h-6 h of PWL (mean ± SEM): N=4; for Statistical evaluation vs. control (DeltaAUC1 h-6 h): 1-way ANOVA & Dunnett; for DeltaAUC1 h-6 h of PWL (mean ± SEM): AUC contralateral minus ipsilateral paws, 1 h to 6 h after administration
# Description: In this in vivo mouse model of chronic neuropathic pain the effect on tactile allodynia, a painful sensation after a normally not painful mechanical stimulus, which had been induced in a hind paw by surgical lesion of the sciatic nerve, was determined by measuring the paw withdrawal threshold (PWT), i.e. the exerted force (expressed in grams) at which the mouse withdrew its hind paw.
# Tactile allodynia was determined at both hind paws, i.e. ipsilateral and contralateral to the lesion if determined subsequent to surgery, with the automatic von Frey test in which the plantar skin of the hind paws was exposed to a pressure stimulus of increasing intensity up to 5 grams using a dump needle stick. The force in grams at which the animal responded withdrawal of the hind paw (paw withdrawal threshold, PWT), was used as a measure of tactile allodynia.
# Two test groups and one control group of animals were used each consisting of four male C57B6 mice. In all groups, baseline PWT values (BL) were determined before surgery. For induction of neuropathic pain then, under general anesthesia, in all groups the two major branches of the sciatic nerve were ligated and transected, with the sural nerve left intact (spared nerve injury, SNI). In this model of neuropathic pain, tactile allodynia developed completely within two days after nerve transection in the hind paw ipsilateral to the lesion and remained stable in the control group over the complete observation period of the experiment.
# 7 days after surgery, immediately before administration of the test compound, i.e. at the time 0 h, in all groups PWT values were determined for the injured ipsilateral hind paw and the non-injured contralateral hind paw. Then either the test compound or vehicle was administered to the animals orally by gavage. In the test groups, mice received 100 μl/10 g body weight of a suspension of the test compound in vehicle MC/T80 comprising 0.3 mg/ml or 3 mg/ml (prepared as described in pharmaceutical example A) for attaining a dosage of 3 mg/kg body weight and 30 mg/kg body weight, respectively. In the control group, mice analogously received 100 μl/10 g body weight of vehicle MC/T80. 1 h, 2 h, 4 h and 6 h after administration, PWT values were determined.
# The given PWT values (in grams) are the mean±SEM (standard error of the mean) of the PWT measurements performed with the ipsilateral hind paw and the contralateral hind paw, respectively, of each animal of the indicated group (N (number of animals)=4) at the time points 0 h (i.e. before administration of test compound or vehicle) and 1 h, 2 h, 4 h and 6 h after administration of test compound or vehicle, as well as the baseline PWT values (BL) determined before surgery.
# For the statistical analysis, PWT values were used in two ways, first with a 2-way ANOVA test based on the PWT values and second with a 1-way ANOVA test based on area under the curve (AUC) values for the time period of 6 h after application of the test compound or vehicle. A repeated measures 2-way ANOVA test (factor treatment and repeated measures factor time) was performed on PWT measurements. In case the interaction (treatment×time) was statistically significant, a Winer complementary analysis was done to investigate the effect of treatment for each time point. A Dunnett's test was used to study the potential differences between the control group and the test groups.
# As a quantitative measure of the efficacy of a test compound over an extended time period, the area under the curve (AUC) of the individual PWT values for the time period from 1 h to 6 h after administration of test compound or vehicle (AUC1 h-6 h) was determined for the ipsilateral paws of each group and the obtained value subtracted from the value determined for the contralateral paws of the same group to give DeItaAUC1 h-6 h values for each group. […]
smiles,measurement,setting,value
"O=C(Nc1ccc(S(=O)(=O)N2CCOCC2)cc1)c1cc(Cl)ccc1NS(=O)(=O)c1ccc(Cl)s1.[Na] [Example 94, 5-Chloro-2-(5-chloro-thiophene-2-sulfonylamino)-N-(4-(morpholine-4-sulfonyl)-phenyl)-benzamide sodium salt]",Mean PWT (paw withdrawal threshold) ± SEM,"3 mg/kg body weight group, BL baseline before surgery",4.75 grams
same,Mean PWT (paw withdrawal threshold) ± SEM,"3 mg/kg body weight group, injured ipsilateral paw, 0 h (before administration)",1.58 grams
same,Mean PWT (paw withdrawal threshold) ± SEM,"3 mg/kg body weight group, non-injured contralateral paw, 0 h (before administration)",4.84 ± 0.11 grams
same,Statistical evaluation vs. control (DeltaAUC1 h-6 h),3 mg/kg body weight oral,"*** (significant, p < 0.0001 (ANOVA & Dunnett))"
same,DeltaAUC1 h-6 h of PWL (mean ± SEM),3 mg/kg body weight oral,4.60 ± 1.20
same,"Anti-allodynic effect on PWT vs. control (2-way ANOVA, Dunnett)","3 mg/kg body weight oral, from 1 h to 4 h after administration",Statistically significant ant-allodynic effects
same,Mean PWT (paw withdrawal threshold) ± SEM,"3 mg/kg body weight oral, injured ipsilateral paw, 1 h after administration",2.96 grams
same,Mean PWT (paw withdrawal threshold) ± SEM,"3 mg/kg body weight oral, injured ipsilateral paw, 2 h after administration",4.64 ± 0.11 grams
same,Mean PWT (paw withdrawal threshold) ± SEM,"3 mg/kg body weight oral, injured ipsilateral paw, 4 h after administration",4.12 ± 0.17 grams
same,Mean PWT (paw withdrawal threshold) ± SEM,"3 mg/kg body weight oral, injured ipsilateral paw, 6 h after administration",2.50 ± 0.40 grams
same,Mean PWT (paw withdrawal threshold) ± SEM,"3 mg/kg body weight oral, non-injured contralateral paw, 1 h after administration",4.66 ± 0.14 grams
same,Mean PWT (paw withdrawal threshold) ± SEM,"3 mg/kg body weight oral, non-injured contralateral paw, 2 h after administration",4.95 ± 0.02 grams
same,Mean PWT (paw withdrawal threshold) ± SEM,"3 mg/kg body weight oral, non-injured contralateral paw, 4 h after administration",4.61 ± 0.13 grams
same,Mean PWT (paw withdrawal threshold) ± SEM,"3 mg/kg body weight oral, non-injured contralateral paw, 6 h after administration",4.82 grams
same,Mean PWT (paw withdrawal threshold) ± SEM,"30 mg/kg body weight group, BL baseline before surgery",4.70 grams
same,Mean PWT (paw withdrawal threshold) ± SEM,"30 mg/kg body weight group, injured ipsilateral paw, 0 h (before administration)",1.91 grams
same,Mean PWT (paw withdrawal threshold) ± SEM,"30 mg/kg body weight group, non-injured contralateral paw, 0 h (before administration)",4.69 ± 0.23 grams
same,Statistical evaluation vs. control (DeltaAUC1 h-6 h),30 mg/kg body weight oral,"*** (significant, p < 0.0001 (ANOVA & Dunnett))"
same,DeltaAUC1 h-6 h of PWL (mean ± SEM),30 mg/kg body weight oral,1.52 ± 0.94
same,"Anti-allodynic effect on PWT vs. control (2-way ANOVA, Dunnett)","30 mg/kg body weight oral, from 1 h to 6 h after administration",Statistically significant ant-allodynic effects
same,Mean PWT (paw withdrawal threshold) ± SEM,"30 mg/kg body weight oral, injured ipsilateral paw, 1 h after administration",3.70 grams
same,Mean PWT (paw withdrawal threshold) ± SEM,"30 mg/kg body weight oral, injured ipsilateral paw, 2 h after administration",4.66 ± 0.10 grams
same,Mean PWT (paw withdrawal threshold) ± SEM,"30 mg/kg body weight oral, injured ipsilateral paw, 4 h after administration",4.51 ± 0.17 grams
same,Mean PWT (paw withdrawal threshold) ± SEM,"30 mg/kg body weight oral, injured ipsilateral paw, 6 h after administration",4.24 ± 0.08 grams
same,Mean PWT (paw withdrawal threshold) ± SEM,"30 mg/kg body weight oral, non-injured contralateral paw, 1 h after administration",4.82 ± 0.10 grams
same,Mean PWT (paw withdrawal threshold) ± SEM,"30 mg/kg body weight oral, non-injured contralateral paw, 2 h after administration",4.84 ± 0.10 grams
same,Mean PWT (paw withdrawal threshold) ± SEM,"30 mg/kg body weight oral, non-injured contralateral paw, 4 h after administration",4.70 ± 0.19 grams
same,Mean PWT (paw withdrawal threshold) ± SEM,"30 mg/kg body weight oral, non-injured contralateral paw, 6 h after administration",4.55 grams
same,Improvement of DeltaAUC1 h-6 h over vehicle control (1-way ANOVA),"both dosages, 3 mg/kg and 30 mg/kg body weight oral",significant improvement over the control group
